Source: ChEMBL document CHEMBL1201862, “PubChem BioAssay data set” (2004)
Activity calls are given as the source filed them.

Columns and labels:
[1] = target: Transthyretin (Homo sapiens, UniProt P02766); test: Luminescence-based cell-based high throughput dose response assay to identify activators of Transthyretin (TTR) transcription.; format: functional
[2] = target: Heat shock protein HSP 90-alpha (Homo sapiens, UniProt P07900); test: Luminescence-based dose response biochemical high throughput screening assay for inhibitors of the Heat Shock Protein 90 (HSP90). [Related pubchem assays: 1831 (Summary AID.), 1846 (Confirmation screen.), 1789 (Primary screen.)]
[3] = tested on: A-375; test: proliferation inhibition in MITF-low A375 cells – cell-based, cherry-pick samples, set 2, counter-screen for MITF modulator project, dose response (AID 540335); format: functional; settings: Homo sapiens
[4] = tested on: A-375; test: MITF: Counter assay: A375 proliferation Measured in Cell-Based System Using Plate Reader - 2084-03_Inhibitor_Dose_DryPowder_Activity. [Related pubchem assays (depositor defined):AID488944]; format: functional; settings: Homo sapiens
[5] = viability loss in Vero cells – cytotoxicity control for Vif-APOBEC3G degradation inhibitor project, dose response (AID 1117358); format: functional; settings: Vero
[6] = Luminescence-based cell-based high throughput dose response assay to identify activators of the DAF-12 from the parasite S. stercoralis (ssDAF-12).; format: functional
[7] = cells
[8] = target: T1, Oxysterols receptor LXR-beta (Homo sapiens, UniProt P55055); format: functional, cell-based;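 further: Cell-based luminescence dose-response assay of agonist activity at LXR, run as a confirmatory counterscreen to a daf-12 agonist screen; agonist potency from rising luciferase signal of a Gal4-LXR reporter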
T1 sequence (P55055 whole entry): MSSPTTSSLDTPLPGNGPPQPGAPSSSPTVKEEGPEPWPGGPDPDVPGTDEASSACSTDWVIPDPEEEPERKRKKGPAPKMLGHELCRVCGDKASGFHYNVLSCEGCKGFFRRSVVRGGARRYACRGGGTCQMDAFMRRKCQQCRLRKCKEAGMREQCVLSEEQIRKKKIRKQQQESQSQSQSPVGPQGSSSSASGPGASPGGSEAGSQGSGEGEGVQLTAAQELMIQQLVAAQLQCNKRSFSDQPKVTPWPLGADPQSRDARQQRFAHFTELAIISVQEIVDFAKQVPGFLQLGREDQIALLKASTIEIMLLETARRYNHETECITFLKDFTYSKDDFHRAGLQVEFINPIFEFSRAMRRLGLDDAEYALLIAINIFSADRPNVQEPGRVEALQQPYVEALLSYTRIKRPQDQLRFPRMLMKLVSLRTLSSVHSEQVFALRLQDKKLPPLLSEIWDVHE

[9] = target: T1, Oxysterols receptor LXR-beta; test: LXR agonists, Gal4 luciferase reporter, dose response, counter-screen for ssDAF-12 agonist project, cell-based, luminescence, HEK293, S. stercoralis campaign (AID 720737); format: functional; settings: read-out: IC50 (the source's name)
[10] = HIV-1 Vif–A3G interaction blockers – biochemical, TR-FRET, GST-Vif 1-94, biotin-A3G peptide, dose response retest, primary screen (AID 1117319); format: functional;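 further: TR-FRET signal of purified GST-Vif binding a biotinylated A3G peptide; inhibitors lower the FRET signal by blocking Vif and A3G binding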
[11] = target: E3 ubiquitin-protein ligase Mdm2 (Homo sapiens, UniProt Q00987); test: MDM2-luc reporter signal enhancers, multi-concentration potency testing, MDM2 ubiquitin-protein ligase inhibitor program, whole-cell format, luminescence detection, 384-well microplate (AID 1394); format: functional;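 further: MDM2 E3 inhibitors raise luminescence so EC50 is for signal enhancement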
[12] = Counterscreen for activators of the function of SWI/SNF related, matrix associated, actin dependent regulator of chromatin, subfamily a, member 2 (SMARCA2, BRM): Luminescence-based cell-based high throughput dose response assay to identify non-selective compounds using the VP16 reporter assay.; format: functional
[13] = target: SWI/SNF-related matrix-associated actin-dependent regulator of chromatin subfamily A member 2 (Homo sapiens, UniProt P51531); test: Luminescence-based cell-based high throughput dose response assay to identify activators of the function of SWI/SNF related, matrix associated, actin dependent regulator of chromatin, subfamily a, member 2 (SMARCA2, BRM).; format: functional
[14] = cells; settings: A549
[15] = cells; settings: HEK293
[16] = viability loss in HepG2 liver cells – cell-based, ATP luminescence, cherry-pick, set 6, cytotoxicity control, dose response (AID 1053125); format: functional
[17] = HEK293 Cytotoxicity Assay Measured in Cell-Based System Using Plate Reader - 7071-01_Inhibitor_Dose_CherryPick_Activity_Set2.; format: functional
[18] = tested on: HEK293; test: viability loss in HEK293T cells – cell-based, ATP luminescence, cherry-pick samples, cytotoxicity control, dose response (AID 687005); format: functional; settings: Homo sapiens;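 further: cells exposed to compound for 48 hours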
[19] = target: Paired box protein Pax-8 (Homo sapiens, UniProt Q06710); test: PAX8 transcriptional activity inhibition in RMG-I – RMG-I cells, luciferase, cherry-pick, dose response (AID 687027); format: functional, cell-based;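 further: luciferase reporter driven by Pax8 target thyroperoxidase promoter measured by SteadyGlo luminescence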
[20] = OVCAR8 cell viability loss – plate reader, dry powder samples, PAX8 project, dose response (AID 743197); format: functional, cell-based; settings: OVCAR-8
[21] = OVCAR-3 cell viability loss – plate reader, dry powder samples, PAX8 inhibitor project, dose response (AID 743044); format: functional, cell-based
[22] = toxicity toward immortalized ovarian surface epithelium – cell-based, plate reader, dry powder samples, cytotoxicity control for PAX8 inhibitor project, dose response (AID 743045); format: functional
[23] = inhibitors acting on PAX2 in cells – cell-based, plate reader, dry powder samples, selectivity assay for PAX8 inhibitor project, dose response (AID 743048); format: functional;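 further: HEK293 cells carrying a WT1 promoter luciferase reporter driven by expressed Pax2; potency is for inhibition of Pax2 driven reporter signal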
[24] = OV-90 cell viability loss – plate reader, dry powder, SA8, PAX8 inhibitor project, dose response (AID 743149); format: functional, cell-based
[25] = A2780 cell killing – plate reader, dry powder samples, cytotoxicity control, dose response (AID 743046); format: functional, cell-based
[26] = IGROV1 cell killing – plate reader, dry powder samples, PAX8 inhibitor project, dose response (AID 743043); format: functional, cell-based; settings: IGROV-1
[27] = OVCAR4 cell viability loss – plate reader, dry powder, SA11, cytotoxicity control for PAX8 inhibitor project, dose response (AID 743150); format: functional, cell-based; settings: OVCAR-4
[28] = COV434 cell viability loss – plate reader, dry powder, SA7, cytotoxicity control for PAX8 inhibitor project, dose response (AID 743145); format: functional, cell-based
[29] = PAX5 cellular inhibition readout – cell-based, plate reader, dry powder samples, selectivity assay for PAX8 inhibitor project, dose response (AID 743047); format: functional;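 further: HEK293 cells carrying a Pax5 driven CD19 promoter luciferase reporter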
[30] = PAX8-dependent cell viability loss – plate reader, dry powder, dose response (AID 743049); format: functional, cell-based
[31] = COV362 cell viability loss – plate reader, dry powder, SA12, cytotoxicity control for PAX8 inhibitor project, dose response (AID 743144); format: functional, cell-based

Chain of E3 ubiquitin-protein ligase Mdm2 (Q00987 whole entry): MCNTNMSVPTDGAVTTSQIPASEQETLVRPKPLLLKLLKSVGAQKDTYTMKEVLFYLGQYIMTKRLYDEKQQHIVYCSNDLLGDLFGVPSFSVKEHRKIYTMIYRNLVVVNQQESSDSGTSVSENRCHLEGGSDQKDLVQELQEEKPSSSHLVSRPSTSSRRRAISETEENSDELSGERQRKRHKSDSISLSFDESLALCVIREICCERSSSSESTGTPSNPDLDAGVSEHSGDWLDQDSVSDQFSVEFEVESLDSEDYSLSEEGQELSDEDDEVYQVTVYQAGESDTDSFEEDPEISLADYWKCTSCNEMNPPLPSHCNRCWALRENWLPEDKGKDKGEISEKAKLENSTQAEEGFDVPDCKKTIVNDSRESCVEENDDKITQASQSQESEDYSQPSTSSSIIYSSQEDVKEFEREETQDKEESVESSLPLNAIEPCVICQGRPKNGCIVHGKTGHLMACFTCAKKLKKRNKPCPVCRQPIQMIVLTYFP
Chain of SWI/SNF-related matrix-associated actin-dependent regulator of chromatin subfamily A member 2 (P51531 whole entry): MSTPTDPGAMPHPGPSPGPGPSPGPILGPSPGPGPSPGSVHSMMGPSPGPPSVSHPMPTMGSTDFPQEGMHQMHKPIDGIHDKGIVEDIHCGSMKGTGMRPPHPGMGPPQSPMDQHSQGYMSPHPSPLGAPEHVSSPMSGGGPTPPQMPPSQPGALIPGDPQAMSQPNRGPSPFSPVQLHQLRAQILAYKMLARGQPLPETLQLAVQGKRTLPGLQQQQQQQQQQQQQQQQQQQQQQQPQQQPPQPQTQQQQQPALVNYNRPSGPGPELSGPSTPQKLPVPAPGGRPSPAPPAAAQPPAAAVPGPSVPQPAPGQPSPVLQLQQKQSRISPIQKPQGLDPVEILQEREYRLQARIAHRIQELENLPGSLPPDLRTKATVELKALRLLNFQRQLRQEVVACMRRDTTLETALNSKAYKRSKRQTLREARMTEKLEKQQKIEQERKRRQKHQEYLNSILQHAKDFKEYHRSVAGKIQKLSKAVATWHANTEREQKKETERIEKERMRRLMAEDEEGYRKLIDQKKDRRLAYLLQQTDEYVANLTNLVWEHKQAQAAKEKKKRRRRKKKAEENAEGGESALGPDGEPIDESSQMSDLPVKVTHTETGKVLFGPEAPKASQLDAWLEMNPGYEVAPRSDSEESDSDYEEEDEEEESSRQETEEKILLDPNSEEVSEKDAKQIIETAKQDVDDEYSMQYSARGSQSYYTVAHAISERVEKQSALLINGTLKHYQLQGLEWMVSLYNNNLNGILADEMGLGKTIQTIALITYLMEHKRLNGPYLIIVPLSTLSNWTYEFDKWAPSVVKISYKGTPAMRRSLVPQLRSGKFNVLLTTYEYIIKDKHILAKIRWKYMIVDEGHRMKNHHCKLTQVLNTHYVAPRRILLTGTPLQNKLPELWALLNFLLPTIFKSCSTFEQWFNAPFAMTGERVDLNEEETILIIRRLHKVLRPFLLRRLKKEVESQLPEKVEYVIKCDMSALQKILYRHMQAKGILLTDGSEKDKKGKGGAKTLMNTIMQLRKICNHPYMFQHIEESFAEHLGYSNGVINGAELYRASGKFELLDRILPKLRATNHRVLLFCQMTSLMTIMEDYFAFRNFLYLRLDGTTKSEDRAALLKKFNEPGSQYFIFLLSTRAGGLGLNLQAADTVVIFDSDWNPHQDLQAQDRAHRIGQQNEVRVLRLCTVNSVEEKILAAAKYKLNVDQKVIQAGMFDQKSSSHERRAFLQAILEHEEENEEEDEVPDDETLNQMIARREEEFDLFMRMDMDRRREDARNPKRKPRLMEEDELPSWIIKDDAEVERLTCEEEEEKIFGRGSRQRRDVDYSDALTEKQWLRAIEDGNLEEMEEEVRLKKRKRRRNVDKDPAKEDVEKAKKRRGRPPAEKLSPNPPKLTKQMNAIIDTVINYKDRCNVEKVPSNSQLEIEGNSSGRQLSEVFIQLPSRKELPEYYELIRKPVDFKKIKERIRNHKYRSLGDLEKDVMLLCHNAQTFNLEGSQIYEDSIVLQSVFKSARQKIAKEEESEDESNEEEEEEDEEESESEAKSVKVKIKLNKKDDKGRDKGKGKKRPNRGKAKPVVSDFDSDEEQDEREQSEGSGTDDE
Chain of Paired box protein Pax-8 (Q06710 whole entry): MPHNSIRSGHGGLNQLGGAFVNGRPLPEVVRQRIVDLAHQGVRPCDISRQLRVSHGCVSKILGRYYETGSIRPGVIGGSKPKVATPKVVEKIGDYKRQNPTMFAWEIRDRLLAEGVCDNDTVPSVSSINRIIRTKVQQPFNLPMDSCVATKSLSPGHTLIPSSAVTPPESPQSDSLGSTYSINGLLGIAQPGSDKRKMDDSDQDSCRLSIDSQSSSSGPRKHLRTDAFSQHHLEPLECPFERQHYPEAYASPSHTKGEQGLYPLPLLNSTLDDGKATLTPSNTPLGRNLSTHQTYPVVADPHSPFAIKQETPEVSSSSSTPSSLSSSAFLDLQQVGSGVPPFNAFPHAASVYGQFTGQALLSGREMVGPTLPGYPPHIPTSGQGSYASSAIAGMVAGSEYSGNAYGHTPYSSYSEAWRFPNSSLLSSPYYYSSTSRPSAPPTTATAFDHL

## O=C(/C(=C(\[S-])Nc1ccc(SC(F)F)cc1)[n+]1ccccc1)c1cc(Cl)ccc1Cl
[1]
  EC50: > 167 µM (inactive)

## COC(=O)c1ccc(COc2ccc3c(c2)CCC3)o1
[2]
  IC50: > 7 µM (active)
[3]
  AC50: > 35 µM (active)
[4]
  AC50: > 35 µM (active)

## COc1c(OC(C)=O)ccc(/C=C/c2ccc3ccccc3n2)c1[N+](=O)[O-]
[5]
  CC50: 33.2 µM (active)

## Clc1ccc(-c2nc3n(n2)Cc2ccccc2-3)cc1
[6]
  IC50: > 67.5 µM (inactive)
[7]
  EC50: > 67.5 µM (inactive)
[8]
  EC50: > 67.5 µM (inactive)
[9]
  EC50: > 67.5 µM (inactive)

## Cc1cc(NC(=O)Cn2cnc3c(nnn3-c3cccc(F)c3)c2=O)no1
[10]
  IC50: > 100 µM (active)

## Cc1cc(C(=O)CSc2nnc(Nc3ccccc3)s2)c(C)n1CC1CCCO1 (stereo unspecified)
[11]
  EC50: 20.4 µM (not active)

## N#Cc1ccc(/C=C\c2[nH]ccc3c4ccccc4nc2-3)cc1
[12]
  EC50: > 91.2 µM (inactive)
[13]
  EC50: > 91.2 µM (inactive)
[14]
  AC50: 24.2 µM (active)
[15]
  AC50: > 52 µM (inactive)
[16]
  AC50: 40.7 µM (active)

## CCCN1C[C@H](C)[C@@H](OC)CN(C)C(=O)c2cc(NC(=O)c3cccc(F)c3)ccc2OC[C@@H]1C
[17]
  AC50: 19.8 µM (active)
[18]
  AC50: 19.8 µM (active)

## CN(C[C@H]1N[C@@H](CO)[C@@H]1c1ccc(-c2cccnc2)cc1)C(=O)c1ccccc1
[19]
  AC50: 2.89 µM (active)
[20]
  AC50: 8.64 µM (active)
[21]
  AC50: 7.22 µM (active)
[22]
  AC50: 23.4 µM (active)
[23]
  AC50: > 32 µM (inactive)
[24]
  AC50: 14.5 µM (active)
[25]
  AC50: 13.8 µM (active)
[26]
  AC50: 5.83 µM (active)
[27]
  AC50: 5.14 µM (active)
[28]
  AC50: 11.3 µM (active)
[29]
  AC50: 15.8 µM (active)
[30]
  AC50: 9.82 µM (active)
[31]
  AC50: 7.42 µM (active)
